Columns and labels:
Format in all cases: binding
[1] = biological target: T1, kinases (KINOMEscan panel) (Homo sapiens, UniProt O14757); settings: CHEK1; NEW KINOMEscan
T1 sequence (O14757 1-476): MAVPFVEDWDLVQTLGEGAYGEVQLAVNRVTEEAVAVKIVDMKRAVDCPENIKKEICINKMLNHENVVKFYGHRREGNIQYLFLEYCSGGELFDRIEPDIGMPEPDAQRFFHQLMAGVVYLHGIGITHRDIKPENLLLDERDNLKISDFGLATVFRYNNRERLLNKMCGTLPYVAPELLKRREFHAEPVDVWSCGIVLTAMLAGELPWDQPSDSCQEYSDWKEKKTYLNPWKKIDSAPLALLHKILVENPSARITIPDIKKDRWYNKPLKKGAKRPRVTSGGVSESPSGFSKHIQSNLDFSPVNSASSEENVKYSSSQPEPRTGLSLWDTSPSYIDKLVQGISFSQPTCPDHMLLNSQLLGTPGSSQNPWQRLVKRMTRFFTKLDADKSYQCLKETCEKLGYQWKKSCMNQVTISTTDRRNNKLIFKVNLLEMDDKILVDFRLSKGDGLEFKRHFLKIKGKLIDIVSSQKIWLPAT

[2] = biological target: kinases (KINOMEscan panel) (Homo sapiens, UniProt O43353); settings: RIPK2; NEW KINOMEscan
Chain of kinases (KINOMEscan panel) (Homo sapiens, UniProt O43353) (O43353 whole entry): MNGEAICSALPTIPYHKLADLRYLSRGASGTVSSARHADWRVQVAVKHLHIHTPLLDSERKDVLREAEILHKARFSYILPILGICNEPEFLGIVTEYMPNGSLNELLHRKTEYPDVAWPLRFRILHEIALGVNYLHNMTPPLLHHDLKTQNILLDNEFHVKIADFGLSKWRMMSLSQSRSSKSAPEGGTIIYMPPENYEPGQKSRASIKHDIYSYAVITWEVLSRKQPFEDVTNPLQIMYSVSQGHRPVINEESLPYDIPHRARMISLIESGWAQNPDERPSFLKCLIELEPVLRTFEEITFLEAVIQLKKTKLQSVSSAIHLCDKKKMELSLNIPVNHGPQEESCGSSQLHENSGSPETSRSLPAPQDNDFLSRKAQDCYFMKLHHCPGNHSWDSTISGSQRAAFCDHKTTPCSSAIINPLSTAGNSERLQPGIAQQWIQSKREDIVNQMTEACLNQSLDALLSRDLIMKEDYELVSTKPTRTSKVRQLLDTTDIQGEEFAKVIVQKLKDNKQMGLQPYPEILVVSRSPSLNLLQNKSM

[3] = biological target: kinases (KINOMEscan panel) (Homo sapiens, UniProt O95747); settings: NEW KINOMEscan
Chain of kinases (KINOMEscan panel) (Homo sapiens, UniProt O95747) (O95747 whole entry): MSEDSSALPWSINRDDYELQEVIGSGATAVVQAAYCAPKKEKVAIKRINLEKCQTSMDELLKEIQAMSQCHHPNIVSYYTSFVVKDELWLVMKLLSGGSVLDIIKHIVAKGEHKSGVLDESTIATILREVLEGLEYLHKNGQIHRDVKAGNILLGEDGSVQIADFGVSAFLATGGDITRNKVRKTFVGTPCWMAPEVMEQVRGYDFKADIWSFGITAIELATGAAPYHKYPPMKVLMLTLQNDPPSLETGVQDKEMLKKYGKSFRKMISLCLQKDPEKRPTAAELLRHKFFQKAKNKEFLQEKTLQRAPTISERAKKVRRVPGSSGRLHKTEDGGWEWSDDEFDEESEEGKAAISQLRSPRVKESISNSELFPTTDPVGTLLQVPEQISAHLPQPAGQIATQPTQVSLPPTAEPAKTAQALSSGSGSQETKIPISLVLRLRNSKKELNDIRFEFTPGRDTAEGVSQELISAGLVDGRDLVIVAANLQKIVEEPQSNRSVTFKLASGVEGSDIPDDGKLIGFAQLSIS

[4] = biological target: kinases (KINOMEscan panel) (Homo sapiens, UniProt P07949, M918T); settings: NEW KINOMEscan
[5] = biological target: kinases (KINOMEscan panel) (Homo sapiens, UniProt P15056, V600E); settings: kinase BRAF(V600E); NEW KINOMEscan
Chain of kinases (KINOMEscan panel) (Homo sapiens, UniProt P15056, V600E) (P15056 whole entry V600E): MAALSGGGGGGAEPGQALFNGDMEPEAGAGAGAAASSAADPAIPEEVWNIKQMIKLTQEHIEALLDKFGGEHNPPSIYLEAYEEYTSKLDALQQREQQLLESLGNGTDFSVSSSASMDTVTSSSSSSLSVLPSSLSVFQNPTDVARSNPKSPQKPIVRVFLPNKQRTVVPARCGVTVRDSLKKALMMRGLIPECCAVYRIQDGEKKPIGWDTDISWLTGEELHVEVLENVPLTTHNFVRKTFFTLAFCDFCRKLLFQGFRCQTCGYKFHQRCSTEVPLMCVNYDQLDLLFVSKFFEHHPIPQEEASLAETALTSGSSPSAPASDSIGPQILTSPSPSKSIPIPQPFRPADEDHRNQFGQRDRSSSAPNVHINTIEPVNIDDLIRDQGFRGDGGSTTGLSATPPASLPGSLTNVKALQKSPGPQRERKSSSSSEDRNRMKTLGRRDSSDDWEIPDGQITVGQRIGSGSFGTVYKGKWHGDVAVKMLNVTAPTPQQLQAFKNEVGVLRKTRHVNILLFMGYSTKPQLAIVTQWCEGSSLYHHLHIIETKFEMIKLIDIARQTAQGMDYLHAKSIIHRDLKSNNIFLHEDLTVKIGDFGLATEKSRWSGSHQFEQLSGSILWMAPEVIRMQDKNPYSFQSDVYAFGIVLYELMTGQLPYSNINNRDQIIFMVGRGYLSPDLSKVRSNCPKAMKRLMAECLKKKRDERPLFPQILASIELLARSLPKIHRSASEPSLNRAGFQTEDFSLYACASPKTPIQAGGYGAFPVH

[6] = biological target: T2, kinases (KINOMEscan panel) (Homo sapiens, UniProt P25098); settings: NEW KINOMEscan
T2 sequence (P25098 1-689): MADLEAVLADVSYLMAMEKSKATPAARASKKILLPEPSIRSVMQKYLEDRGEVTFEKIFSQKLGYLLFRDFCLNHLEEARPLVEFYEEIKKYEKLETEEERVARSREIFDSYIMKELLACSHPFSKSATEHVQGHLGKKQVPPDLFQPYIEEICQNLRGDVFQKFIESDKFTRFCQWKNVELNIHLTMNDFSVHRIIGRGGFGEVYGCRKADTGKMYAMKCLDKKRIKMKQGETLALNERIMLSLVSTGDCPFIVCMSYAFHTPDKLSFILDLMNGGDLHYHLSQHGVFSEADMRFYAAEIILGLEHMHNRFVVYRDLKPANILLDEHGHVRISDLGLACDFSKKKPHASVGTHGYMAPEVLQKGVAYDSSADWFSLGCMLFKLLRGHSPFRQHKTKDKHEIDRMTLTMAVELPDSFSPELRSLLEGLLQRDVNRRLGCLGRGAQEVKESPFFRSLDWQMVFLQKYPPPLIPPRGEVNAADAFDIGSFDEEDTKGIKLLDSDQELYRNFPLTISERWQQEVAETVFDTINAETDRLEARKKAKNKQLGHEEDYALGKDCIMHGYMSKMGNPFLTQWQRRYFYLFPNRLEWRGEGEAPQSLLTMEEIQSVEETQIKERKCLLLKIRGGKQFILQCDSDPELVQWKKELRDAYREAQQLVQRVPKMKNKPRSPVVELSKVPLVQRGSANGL

[7] = biological target: kinases (KINOMEscan panel) (Homo sapiens, UniProt P36888, N841I); settings: FLT3(N841I); NEW KINOMEscan
[8] = biological target: kinases (KINOMEscan panel) (Homo sapiens, UniProt P49759); settings: kinase CLK1; NEW KINOMEscan
Chain of kinases (KINOMEscan panel) (Homo sapiens, UniProt P49759) (P49759 whole entry): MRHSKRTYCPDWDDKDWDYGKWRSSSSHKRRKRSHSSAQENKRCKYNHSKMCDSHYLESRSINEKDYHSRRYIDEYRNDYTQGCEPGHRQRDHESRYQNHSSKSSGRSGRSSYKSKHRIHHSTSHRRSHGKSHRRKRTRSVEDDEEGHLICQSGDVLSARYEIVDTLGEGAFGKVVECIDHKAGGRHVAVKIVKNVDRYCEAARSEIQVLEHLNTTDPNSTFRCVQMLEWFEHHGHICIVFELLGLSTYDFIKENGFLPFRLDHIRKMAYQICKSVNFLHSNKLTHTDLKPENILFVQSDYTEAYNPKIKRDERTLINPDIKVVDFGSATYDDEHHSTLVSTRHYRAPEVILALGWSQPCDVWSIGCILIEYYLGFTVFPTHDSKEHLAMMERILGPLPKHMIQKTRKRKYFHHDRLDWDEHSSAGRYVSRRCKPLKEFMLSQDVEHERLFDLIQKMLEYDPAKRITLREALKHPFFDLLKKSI

[9] = biological target: kinases (KINOMEscan panel) (Homo sapiens, UniProt P51957); settings: kinase NEK4; NEW KINOMEscan
[10] = biological target: kinases (KINOMEscan panel) (Homo sapiens, UniProt P57059); settings: kinase SIK1; NEW KINOMEscan
Chain of kinases (KINOMEscan panel) (Homo sapiens, UniProt P57059) (P57059 whole entry): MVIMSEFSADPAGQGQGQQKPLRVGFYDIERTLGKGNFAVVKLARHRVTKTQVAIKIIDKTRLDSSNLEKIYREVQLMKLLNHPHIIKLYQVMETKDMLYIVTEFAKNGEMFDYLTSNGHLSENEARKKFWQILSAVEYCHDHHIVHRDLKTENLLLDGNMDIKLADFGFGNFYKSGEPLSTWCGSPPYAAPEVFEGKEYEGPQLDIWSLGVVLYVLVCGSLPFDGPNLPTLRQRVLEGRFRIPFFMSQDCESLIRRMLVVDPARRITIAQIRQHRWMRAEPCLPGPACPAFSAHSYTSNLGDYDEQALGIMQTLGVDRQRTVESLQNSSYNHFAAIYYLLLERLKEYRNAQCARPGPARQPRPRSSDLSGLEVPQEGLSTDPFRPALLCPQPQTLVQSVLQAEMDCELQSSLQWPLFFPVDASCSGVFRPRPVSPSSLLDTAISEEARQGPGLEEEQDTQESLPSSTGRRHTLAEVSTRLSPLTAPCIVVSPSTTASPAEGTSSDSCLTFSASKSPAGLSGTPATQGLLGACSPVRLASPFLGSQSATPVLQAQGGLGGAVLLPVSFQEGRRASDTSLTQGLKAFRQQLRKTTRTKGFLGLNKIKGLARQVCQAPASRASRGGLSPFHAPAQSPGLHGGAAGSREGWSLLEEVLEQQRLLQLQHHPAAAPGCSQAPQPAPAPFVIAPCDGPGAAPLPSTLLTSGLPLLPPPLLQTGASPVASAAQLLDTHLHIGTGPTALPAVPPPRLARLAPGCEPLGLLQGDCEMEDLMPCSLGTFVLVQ

[11] = biological target: kinases (KINOMEscan panel) (Homo sapiens, UniProt Q5VT25)
[12] = biological target: kinases (KINOMEscan panel) (Homo sapiens, UniProt Q9H0K1); settings: kinase SIK2; NEW KINOMEscan
Chain of kinases (KINOMEscan panel) (Homo sapiens, UniProt Q9H0K1) (Q9H0K1 whole entry): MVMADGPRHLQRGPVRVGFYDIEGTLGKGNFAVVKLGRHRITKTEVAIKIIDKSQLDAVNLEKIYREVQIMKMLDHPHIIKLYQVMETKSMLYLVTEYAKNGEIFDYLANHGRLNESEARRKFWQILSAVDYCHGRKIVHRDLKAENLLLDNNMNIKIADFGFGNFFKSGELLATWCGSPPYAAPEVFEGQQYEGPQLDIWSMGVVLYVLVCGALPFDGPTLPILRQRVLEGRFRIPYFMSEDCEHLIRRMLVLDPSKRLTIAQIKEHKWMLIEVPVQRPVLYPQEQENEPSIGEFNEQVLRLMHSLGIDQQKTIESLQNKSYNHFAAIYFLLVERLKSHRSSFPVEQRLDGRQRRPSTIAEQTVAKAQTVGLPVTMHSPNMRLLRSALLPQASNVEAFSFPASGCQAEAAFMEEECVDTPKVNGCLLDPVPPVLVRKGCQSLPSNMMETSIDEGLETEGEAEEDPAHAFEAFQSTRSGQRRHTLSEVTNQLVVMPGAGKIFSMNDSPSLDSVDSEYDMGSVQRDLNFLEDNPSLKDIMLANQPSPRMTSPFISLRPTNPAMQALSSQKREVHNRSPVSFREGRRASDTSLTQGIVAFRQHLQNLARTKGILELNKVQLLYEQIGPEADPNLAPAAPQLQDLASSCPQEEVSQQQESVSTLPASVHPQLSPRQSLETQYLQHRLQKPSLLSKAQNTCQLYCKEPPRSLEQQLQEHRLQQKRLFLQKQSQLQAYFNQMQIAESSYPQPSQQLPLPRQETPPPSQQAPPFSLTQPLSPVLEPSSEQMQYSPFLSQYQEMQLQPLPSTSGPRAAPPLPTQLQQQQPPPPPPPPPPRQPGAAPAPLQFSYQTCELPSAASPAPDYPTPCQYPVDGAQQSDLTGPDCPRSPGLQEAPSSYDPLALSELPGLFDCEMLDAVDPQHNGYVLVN

[13] = biological target: kinases (KINOMEscan panel) (Homo sapiens, UniProt Q9UQM7); settings: kinase CAMK2A; NEW KINOMEscan
Chain of kinases (KINOMEscan panel) (Homo sapiens, UniProt Q9UQM7) (Q9UQM7 whole entry): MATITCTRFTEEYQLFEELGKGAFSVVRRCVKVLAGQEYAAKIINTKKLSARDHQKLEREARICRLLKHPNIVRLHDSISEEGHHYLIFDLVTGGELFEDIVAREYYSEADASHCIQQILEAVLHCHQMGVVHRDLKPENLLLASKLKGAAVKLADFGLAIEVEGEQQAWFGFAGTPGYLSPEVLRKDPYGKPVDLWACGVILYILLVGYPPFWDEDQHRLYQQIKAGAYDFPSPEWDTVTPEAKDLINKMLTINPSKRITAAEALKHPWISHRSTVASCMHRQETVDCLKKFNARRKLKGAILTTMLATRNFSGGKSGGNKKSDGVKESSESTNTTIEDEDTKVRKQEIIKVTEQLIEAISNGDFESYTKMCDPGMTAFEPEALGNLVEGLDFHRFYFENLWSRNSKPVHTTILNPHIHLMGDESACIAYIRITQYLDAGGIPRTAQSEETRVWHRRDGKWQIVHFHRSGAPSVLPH

[14] = biological target: kinases (KINOMEscan panel) (Homo sapiens, UniProt Q9Y6M4); settings: CSNK1G3; NEW KINOMEscan
Chain of kinases (KINOMEscan panel) (Homo sapiens, UniProt Q9Y6M4) (Q9Y6M4 whole entry): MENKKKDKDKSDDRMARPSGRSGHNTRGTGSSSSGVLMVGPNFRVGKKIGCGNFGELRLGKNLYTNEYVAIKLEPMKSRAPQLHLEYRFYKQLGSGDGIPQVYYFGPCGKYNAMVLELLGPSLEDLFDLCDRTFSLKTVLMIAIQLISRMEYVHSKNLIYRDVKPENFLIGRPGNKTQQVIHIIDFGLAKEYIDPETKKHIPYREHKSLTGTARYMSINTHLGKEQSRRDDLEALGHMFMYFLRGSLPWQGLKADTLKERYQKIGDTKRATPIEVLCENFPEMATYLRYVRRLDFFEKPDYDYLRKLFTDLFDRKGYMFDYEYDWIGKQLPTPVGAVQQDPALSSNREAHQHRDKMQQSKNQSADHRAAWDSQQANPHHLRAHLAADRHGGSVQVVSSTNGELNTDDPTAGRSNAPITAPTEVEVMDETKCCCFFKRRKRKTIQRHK

Row | Compound | KINOMEscan CHEK1 [1] | KINOMEscan RIPK2 [2] | KINOMEscan OSXR1 [3] | KINOMEscan RET(M918T) [4] | KINOMEscan BRAF(V600E) [5] | KINOMEscan GRK2 [6] | KINOMEscan FLT3(N841I) [7] | KINOMEscan CLK1 [8] | KINOMEscan NEK4 [9] | KINOMEscan SIK1 [10] | KINOMEscan CDC42BPA/MRCKA [11] | KINOMEscan SIK2 [12] | KINOMEscan CAMK2A [13] | KINOMEscan CSNK1G3 [14]
1 | Cc1cccc(-c2nc(Nc3ccc4nn(C)cc4c3)c3ccccc3n2)n1 [NK167] | 2 | 3 | 11 | 0 | 0 | 0 | 3 | 0 | 0 | 1 | 0 | 0 | 0 | 0
2 | Cc1cccc(-c2nc(N(C)c3ccc4ncsc4c3)c3ccccc3n2)n1 [NK-161] | 3 | 11 | 25 | 15 | 0 | 9 | 0 | 2 | 5 | 12 | 5 | 0 | 0 | 0

— paper PMC9851200, “Multiparameter phenotypic screening for endogenous TFEB and TFE3 translocation identifies novel chemical series modulating lysosome function” (Autophagy, 2022)
